{"source": "patent US11779602B2", "about": "“Methods of use for CAR T cells” (ENDOCYTE, INC., priority 2018, dated 2023)", "key": {"MDA-MB-231 tumors": {"test_system": "MDA-MB-231 tumors", "assay": "CAR-T/EC17 therapy, fixed dose and dose de-escalation, in mice bearing MDA-MB-231 tumors", "type": "in vivo", "details": "E2-CAR-T 30 million cells, EC17 dose de-escalation", "text": "The effect of EC17 dose de-escalation was investigated on the anti-tumor activity and the toxicity (body weight changes) of CAR-T therapy. Two different anti-fluorescein scFv were used for the CAR constructions (FIG. 1). The first construct of CAR contains the following domains: antiFL(FITC-E2)scFv-IgG4 hinge (CH2 (L235D, N297Q)-CH3)-CD28 TM-4-1BB-CD3z-T2A-EGFRt. The second construct of CAR contains the following domains: antiFL(FITC-4M5.3)scFv-IgG4 hinge (CH2 (L235D, N297Q)-CH3)-CD28 TM-4-1BB-CD3z-T2A-EGFRt. The nucleic acid sequence and amino acid sequence of the CAR of each construct are shown as SEQ ID NOS:1 to 4. Human T cells were isolated, activated and transduced with a lentiviral vector carrying the appropriate CAR gene. CD4+ T cells with the CAR-modification and CD8+ T cells with the CAR-modification were isolated and cultured separately in vitro for about 7 days. CD4+ CAR-T cells and CD8+ CAR-T cells were mixed at a 1:1 ratio before i.v. administration for animal studies.\nThe second construct 4M5.3-CAR (antiFL(FITC-4M5.3) scFv-IgG4 hinge (CH2 (L235D, N297Q)-CH3)-CD28 TM-4-1BB-CD3z-T2A-EGFRt) was also evaluated. Mice bearing MDA-MB-231 tumors (150-250 mm^3) were used for in vivo studies to evaluate 4M5.3-CAR-T cells. […]"}, "HOS-FRα tumor": {"test_system": "HOS-FRα tumor", "assay": "CRS toxicity and sodium fluorescein rescue in HOS-FRα tumor-bearing mice", "type": "in vivo", "details": "i.v. ~95 mg/kg on day 13, plasma 6 hours later", "description": "All animal care and use were performed according to NIH guidelines and in compliance with protocols approved by the Purdue University Animal Use and Care Committee. Female 4 to 5-week-old NOD/SCID gamma (NSG™) mice (stock number: 005557) were purchased from The Jackson Laboratory (Bar Harbor, Me.). Unless specifically indicated, all animals were maintained on a FA-deficient diet (TestDiet, St. Louis, Mo.) upon arrival and throughout the study. To establish subcutaneous xenografts, MDA-MB-231 and HOS-FRα were implanted in the right flank region at 2.5×10^6 and 1×10^6 cells per animal, respectively. For intravenous xenografts, THP1-FRβ cells were inoculated at 5×10^6 cells per animal. Subcutaneous tumors were measured 2-3 times per week with a caliper and calculated using the ellipsoidal formula (length×width^2)/2. […] All animal doses (CAR-T cells, EC17, sodium fluorescein) were given intravenously.\nDepending on the CAR-T cell dose and how EC17 is administered, tumor-bearing mice receiving FITC-specific CAR-T cells can experience severe CRS and varying degrees of body weight loss. Therefore, a CRS grading system (0-5 scale) was developed to empirically assess CRS toxicity from animals' gross morphology and social behavior to allow for better timing of CRS rescue. While grades 0 and 5 indicated normal (no CRS) or death (due to severe CRS), respectively, grades 1, 2, and 3-4 were considered mild, light-to-moderate, and severe CRS (FIG. 57A). In addition, all EC17 doses were intentionally given towards the end of any given day to allow potential CRS symptoms to develop overnight. On the days immediately following each EC17 dose, animals were scored and rescue agents such as sodium fluorescein, folic acid and leucovorin were used to mitigate CRS toxicity. In this particular instance, a batch of E2 CAR-T cells with a high EGFRt+CD4/CD8 ratio (˜93:7) was given to HOS-FRα tumor-bearing mice at a mixture of ˜2.5 million CD8 and ˜33 million CD4 on day 0 (FIG. 57B). […]"}}}
{"smiles": "O=C([O-])c1ccccc1-c1c2ccc(=O)cc-2oc2cc([O-])ccc12.[Na+].[Na+]", "note": "[sodium fluorescein, reference compound]", "values": [{"measurement": "antitumor activity after NaFL rescue", "setting": "MDA-MB-231 tumors", "result": "antitumor activity is maintained"}, {"measurement": "effect of rescue on CAR-T cell derived human cytokines", "setting": "HOS-FRα tumor", "result": "acted very quickly to reduce CAR-T cell derived human cytokines"}]}
